# From patent US7381401B2, “T cell anergy is reversed by active Ras and regulated by diacylglycerol kinase” (The University of Chicago, priority 2004, dated 2008)
# Assays:
# [1] = test system: CAR transgenic Th1 clones; assay: IL-2 production by CAR transgenic Th1 clones overexpressing DGK isoforms; type: cell-based, mouse
# Procedure: Adenoviral vectors. The CA H-Ras mutant Ras61L cDNA was provided by Dr. F. Fitch (University of Chicago). Construction of recombinant adenoviral vectors was performed using a two-cosmid system protocol described by Wang et al. (2000). Briefly, a gene expression unit containing a human ubiquitin promoter and either HRas61L, GFP, DGKα, kinase-dead DGKα, DGKζ, or no cDNA was inserted into a left-end plasmid, pLEP. pLEPUb-Ras61L and the right-end-plasmid, pREP, containing the E-deleted adenovirus type 2 (Ad2) genome, were digested, ligated and resulting cosmids were packaged into lambda phages. The DGKα kinase-dead DGKα, and DGKζ inserts also have a myc epitope tag. Competent bacteria were transduced with lambda phages and double selection of growing colonies was performed on Amp/Tet plates. Recombinant adenoviruses were then generated by transfection of 293 cells with purified, linearized adenoviral vector DNA. High titer stock solutions were obtained by large-scale infection of 293 cells followed by cesium chloride purification of complete viral particles. Plaque forming units (pfu) of virus preparations were determined by TCID 50 method (AdEasy Vector Systems Manual, Quantum Biotechnologies, Canada). Working solutions of adenoviral vectors were diluted in storage buffer (Nyberg-Hoffman and Aguilar-Cordova, 1999), and stored at −80° C. until needed. […]
# anergic Th1 cells [2] = assay: Toxicity of the DGK inhibitor to anergic Th1 cells; type: cell-based, mouse; conditions: higher concentrations (data not shown)
# Excerpt: If increased DGK activity is contributing to diminished Ras activation and IL-2 production in the anergic state, then inhibition of this enzyme should result in increased IL-2 production by anergic cells. To explore this possibility, the pharmacologic inhibitor R59022 was employed (Jiang et al., 2000). […] Approximately 40% of this IL-2 production was recovered by stimulation with PMA+Ionomycin, arguing that that proportion was mediated by a proximal signaling defect.
# anergic Th1 cells [3] = assay: IL-2 production by anergic Th1 clone pGL10 (ELISA); type: cell-based, mouse
# Excerpt: (§1) Induction of T cell anergy.
# anergic CAR Tg Th1 cells = assay: IL-2 production by anergic CAR Tg Th1 cells (ELISA); type: cell-based, mouse; conditions: stimulated with anti-CD3/anti-CD28 beads
# Excerpt: Induction of T cell anergy. […] Adenoviral transduction of […] cells. […] T cell activation.
# DGKα = DGKα (Homo sapiens, UniProt P23743); conditions: cited from earlier work
# DGK-ζ mRNA = assay: Semi-quantitative RT-PCR of DGK-ζ mRNA in pGL10 cells; type: cell-based, mouse; conditions: pGL10 cells treated with ionomycin
# Procedure: as §1
# (§2) RT-PCR. Total RNA was extracted using Trizol, and cDNA was generated using oligo-dT as a primer. PCR™ was done with titrated doses of cDNA using primers specific for the following genes: […]
# (§3) Between 36 and 39 cycles were performed at an annealing temperature of 55° C. Products were visualized on ethidium bromide-stained 1% agarose gels.
# Egr2 mRNA = assay: Semi-quantitative RT-PCR of Egr2 mRNA in pGL10 cells; type: cell-based, mouse; conditions: pGL10 cells treated with ionomycin
# Procedure: as §1, §2, §3
# DGKα, sequence (P23743 whole entry, species assumed): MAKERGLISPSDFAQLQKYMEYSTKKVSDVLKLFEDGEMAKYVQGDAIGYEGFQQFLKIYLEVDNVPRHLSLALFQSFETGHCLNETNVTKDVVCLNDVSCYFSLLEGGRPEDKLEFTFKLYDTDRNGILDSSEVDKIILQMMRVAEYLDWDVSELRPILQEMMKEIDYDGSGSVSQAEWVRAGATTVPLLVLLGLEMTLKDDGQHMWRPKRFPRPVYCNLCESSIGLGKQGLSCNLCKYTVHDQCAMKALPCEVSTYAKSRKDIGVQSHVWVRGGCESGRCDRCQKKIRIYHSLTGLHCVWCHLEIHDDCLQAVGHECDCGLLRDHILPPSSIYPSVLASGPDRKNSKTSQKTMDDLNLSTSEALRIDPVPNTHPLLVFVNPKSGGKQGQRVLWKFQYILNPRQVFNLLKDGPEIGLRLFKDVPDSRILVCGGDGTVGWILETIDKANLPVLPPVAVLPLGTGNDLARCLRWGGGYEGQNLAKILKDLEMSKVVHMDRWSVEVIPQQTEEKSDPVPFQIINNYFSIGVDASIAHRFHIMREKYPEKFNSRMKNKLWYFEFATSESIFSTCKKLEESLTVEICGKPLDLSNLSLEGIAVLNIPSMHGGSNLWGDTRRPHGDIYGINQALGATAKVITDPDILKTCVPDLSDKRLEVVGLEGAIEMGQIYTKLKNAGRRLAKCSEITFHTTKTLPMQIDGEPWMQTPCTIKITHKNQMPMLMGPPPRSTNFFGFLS
smiles,measurement,setting,value
CCCCCCCCCCCCCC(=O)O[C@@H]1[C@@H](C)[C@@]2(O)[C@@H](C=C(CO)C[C@]3(O)C(=O)C(C)=C[C@@H]23)[C@@H]2C(C)(C)[C@]12OC(C)=O [PMA],IL-2 production on addition of exogenous PMA,[1]; cells transduced to express DGKα,restored IL-2 production
same,IL-2 production on addition of exogenous PMA,[1]; cells transduced to express DGKζ,restored IL-2 production
"Cc1nc2sccn2c(=O)c1CCN1CCC(=C(c2ccccc2)c2ccc(F)cc2)CC1 [R59022, 6-[2-(4-[(4-fluorophenyl)phenyl-methylene]-1-piperidinyl)ethyl]-7-methyl-5H-thiazolo[3,2-]pyrimidine-5-one]",toxicity to the cells,anergic Th1 cells [2],toxic to the cells
same,recovery of IL-2 production,"anergic Th1 cells [3]; anergic Th1 clone pGL10 stimulated with anti-CD3+anti-CD28, increasing concentrations, 25 min pre-incubation, ELISA",significant recovery of IL-2 production in a dose-dependent fashion
same,cytokine release by the inhibitor alone,"anergic Th1 cells [3]; anergic cells, no anti-CD3/anti-CD28 stimulation (data not shown)",did not induce detectable cytokine release
same,IL-2 production,anergic CAR Tg Th1 cells,partially restored IL-2 production
same,DGK isoform preference,DGKα,preferentially inhibits DGKα
C[C@H](CCC(=O)O)C[C@H](C)C[C@H](C)C(=O)/C=C(\O)[C@H](C)C[C@H](C)C/C=C/[C@@H](C)[C@@H](O)[C@@H](C)[C@@H](O)C[C@@H]1CC[C@@](C)([C@H]2CC[C@@](C)([C@@H](C)O)O2)O1 [ionomycin],expression of DGK-ζ mRNA,DGK-ζ mRNA,upregulated
same,Egr2 mRNA,Egr2 mRNA,only a minimal increase
